Assay results as given in article PMC10771296, “Plectasin: from evolution to truncation, expression, and better druggability” (Frontiers in Microbiology, 2023).
Entries after “also recorded” stand apart in the source; their conditions may differ. Where a SMILES comes first, the peptide text is derived from it. Bridges are numbered along the chain shown (N, C = ends).

Tests used:
ICR mice [1] = experiment: In vivo safety: serum biochemical indices; details: 10 mg/kg i.p. for six consecutive days
Procedure: (§1) Eight 6-week-old ICR mice were randomly divided into two groups and injected intraperitoneally with Ple-AB (10 mg/kg, body weight) and saline for six consecutive days. […] They were weighed daily, and blood was collected on the 7th day for hematological and biochemical analyses. Simultaneously, the heart, liver, spleen, lungs, and kidneys were collected for tissue fixation and hematoxylin–eosin (HE) staining to observe any pathological changes ([Shishkina et al., 2023]).

mouse erythrocytes = experiment: Hemolysis; format: cell-based; details: 8% mouse erythrocyte suspension, 37°C
Procedure: The hemolytic properties of the peptides were evaluated by measuring the amount of hemoglobin released from fresh mouse erythrocytes ([Yang et al., 2019]). Blood was collected from mice in sodium heparin anticoagulation tubes, and the erythrocytes were washed three or more times with 0.9% saline to obtain an 8% erythrocyte suspension. The erythrocyte suspension was mixed with an equal volume of Ple-AB at concentrations of 0.5–256 μg/mL, incubated at 37°C, and the absorbance values were measured at 540 nm. PBS and 0.1% Triton X-100 were used as the blank (A0) and positive controls (A100), respectively. Hemolysis (%) = [(A – A0)/(A100 – A0)] × 100, and three replicates were conducted for each case.

S. aureus ATCC43300 [2] = experiment: Post-antibiotic effect; format: cell-based, Staphylococcus aureus; details: 2 h exposure, 1 × 10^8 CFU/mL, then diluted 1,000 times
Procedure: They were incubated at 37°C and 250 rpm, sampled, and coated on MHA plates for colony counting every hour. Phosphate-buffered saline (PBS) was used as a negative control, and vancomycin was used as a positive control. The calculation formula for the Post-antibiotic effect (PAE) was based on previous study ([Wu et al., 2022]).

ICR mice [3] = experiment: In vivo safety: body weight and HE histology; details: 10 mg/kg i.p. for six consecutive days
Procedure: as §1

E. coli ATCC25922 = experiment: MIC, micro broth dilution; format: cell-based; details: 1 × 10^5 CFU/mL, repeated thrice
Procedure: (§2) The minimum inhibitory concentration (MIC) of the peptides was assayed using the micro broth dilution method, which is an important indicator of the antibacterial activity of the AMPs ([Liu et al., 2021]). […] The MIC was defined as the lowest concentration of ones at which no visible bacterial growth was observed. All the assays were repeated thrice.

E. coli O157 = experiment: MIC, micro broth dilution; format: cell-based; details: 1 × 10^5 CFU/mL, repeated thrice
Procedure: as §2

P. aeruginsoa CICC21630 = experiment: MIC, micro broth dilution; format: cell-based; details: 1 × 10^5 CFU/mL, repeated thrice
Procedure: as §2

Shigella CMCC3926 = experiment: MIC, micro broth dilution; format: cell-based; details: 1 × 10^5 CFU/mL, repeated thrice
Procedure: as §2

S. enteriditis CVCC3377 = experiment: MIC, micro broth dilution; format: cell-based; details: 1 × 10^5 CFU/mL, repeated thrice
Procedure: as §2

S. aureus ATCC43300 [4] = experiment: pH stability read out as MIC; format: physicochemical, Staphylococcus aureus; details: for MIC after pH treatment: triplicates
Procedure: The stability of Ple-AB was assessed based on its antibacterial activity against S. aureus ATCC43300. Temperature stability was determined by incubation at 20, 40, 60, 80, and 100°C for 1 h ([Li et al., 2020]). The pH stability was determined by incubation in buffers with a pH of 2, 4, 6, 8, and 10 for 4 h ([Yang et al., 2017]). The peptides were incubated with different concentrations of metal ions, serum, artificial gastric fluid, and simulated intestinal fluid to assess their stability in the blood and intestines ([Lyu et al., 2019]). All the treatments were performed in triplicates.

S. aureus ATCC 43300 = experiment: Inhibition zone screening of expression supernatants; format: cell-based, Staphylococcus aureus; details: induced supernatant of P. pastoris X-33 transformants, 48-well plates, 120 h
From the text: The recombinant expression vector was constructed by ligating the designed and optimized sequence to the pPICZαA inducible expression vector, relying on the preference of the codon of P. pastoris. The linearized plasmid was transferred into P. pastoris X-33 for expression and the resulting product was verified for activity using an inhibition zone assay (against S. aureus ATCC 43300) before the active peptide was expressed at a high density in a 5-L fermenter ([Mao et al., 2015]). The supernatant was purified using the AKTA Express system. The fermentation supernatant was collected by centrifugation (5,000 rmp, 30 min), filtered with micro-filtration membranes ([…]). According to the isoelectric point of the target product, the corresponding A (50 mM sodium phosphate buffer, pH 6.7) and B (50 mM sodium phosphate buffer, 600 mM NaCl, pH 6.7) buffers were configured and purified by HiPrep SP FF cation exchange column (GE Healthcare). The protein samples were eluted by increasing the NaCl concentration in a stepwise manner, and the corresponding elution peak was collected. The purified product was verified using tricine-sodium dodecyl sulfate-polyacrylamide gel electrophoresis (Tricine-SDS-PAGE) and matrix-assisted laser desorption/ionization–time-of-flight mass spectrometry (MALDITOF MS) ([Zhang et al., 2014]).
A total of 15 recombinant plasmids were constructed. […]

CC[C@H](C)[C@@H]1NC(=O)[C@H](CO)NC(=O)[C@H](CCCCN)NC(=O)[C@@H]2CSSC[C@@H](C(=O)N[C@@H](Cc3ccc(O)cc3)C(=O)O)NC(=O)[C@H](CCCCN)NC(=O)[C@@H]3CSSC[C@H](NC(=O)[C@H](CCC(N)=O)NC(=O)[C@H](CCSC)NC(=O)[C@H](CCC(=O)O)NC(=O)[C@H](CC(=O)O)NC(=O)[C@H](Cc4c[nH]c5ccccc45)NC(=O)[C@@H]4CCCN4C(=O)[C@@H](NC(=O)CNC(=O)[C@H](Cc4ccccc4)NC(=O)CN)CSSC[C@H](NC(=O)[C@H](Cc4ccc(O)cc4)NC(=O)CNC(=O)CNC(=O)[C@H](CCCCN)NC(=O)[C@H](Cc4ccc(O)cc4)NC(=O)CNC(=O)[C@H](CCCCN)NC1=O)C(=O)N[C@@H](C)C(=O)N[C@@H](CCCCN)C(=O)NCC(=O)NCC(=O)N[C@@H](Cc1ccccc1)C(=O)N[C@@H](C(C)C)C(=O)N3)C(=O)N[C@@H](Cc1c[nH]cn1)C(=O)N[C@@H](CC(N)=O)C(=O)N[C@@H](Cc1c[nH]cn1)C(=O)N2 [Ple-AB] (H-GFGCPWDEMQCHNHCKSIKGYKGGYCAKGGFVCKCY-OH; disulfide 4-26, 11-33, 15-35; N-terminus and C-terminus assumed)
Serum biochemical indices versus control group (ICR mice [1]; blood on 7th day): not significantly different
ALT (ICR mice [1]; serum on 7th day): 49.07 ± 6.21 IU/L
AST (ICR mice [1]; serum on 7th day): 25.85 ± 2.33 IU/L
Albumin (ICR mice [1]; serum on 7th day): 35.59 ± 4.58 g/L
Ca^2+ (ICR mice [1]; serum on 7th day): 1.38 ± 0.06 mmol/L
Creatinine (ICR mice [1]; serum on 7th day): 83.13 ± 4.57 µmol/L
Globulin (ICR mice [1]; serum on 7th day): 18.82 ± 0.25 g/L
Glucose (ICR mice [1]; serum on 7th day): 1.59 ± 0.15 mmol/L
Phosphorous (ICR mice [1]; serum on 7th day): 3.33 ± 0.20 mmol/L
Total protein (ICR mice [1]; serum on 7th day): 54.41 ± 4.56 g/L
Urea Nitrogen (ICR mice [1]; serum on 7th day): 11.6 ± 0.8 mmol/L
Hemolytic rate (mouse erythrocytes; all concentrations 0.5–256 μg/mL, A540, three replicates): less than 2%
Hemolytic rate (mouse erythrocytes; highest concentration, 256 μg/mL, A540): 1.07%
PAE (post-antibiotic effect) (S. aureus ATCC43300 [2]; 1× MIC): 1.15 h
PAE (post-antibiotic effect) (S. aureus ATCC43300 [2]; 2× MIC): 1.18 h
PAE (post-antibiotic effect) (S. aureus ATCC43300 [2]; 4× MIC): 2.25 h
Histological morphology of heart, liver, spleen, lungs, kidneys (HE staining) (ICR mice [3]; one week after injection, vs saline): no differences in histological morphology
Body weight change (ICR mice [3]; weighed daily): slight tendency to lose weight on the second day after the injection
MIC (E. coli ATCC25922): >128 µg/mL
MIC (E. coli O157): >128 µg/mL
MIC (P. aeruginsoa CICC21630): >128 µg/mL
MIC (Shigella CMCC3926): >128 µg/mL
MIC (S. enteriditis CVCC3377): >128 µg/mL
MIC after pH treatment (S. aureus ATCC43300 [4]; buffer pH 2, 4 h): 16 μg/mL
MIC after pH treatment (S. aureus ATCC43300 [4]; buffer pH 4, 4 h): 16 μg/mL
MIC after pH treatment (S. aureus ATCC43300 [4]; buffer pH 6, 4 h): 16 μg/mL
MIC after pH treatment (S. aureus ATCC43300 [4]; buffer pH 8, 4 h): 16 μg/mL
MIC after pH treatment (S. aureus ATCC43300 [4]; buffer pH 10, 4 h): 32 μg/mL
Increase of MIC after pH treatment (S. aureus ATCC43300 [4]; pH 10, 4 h, versus control): twofold
Antibacterial activity in inhibition circle screening (S. aureus ATCC 43300): better antibacterial activity; also recorded: normal or higher activity
